In ChEMBL document CHEMBL5038592, “Discovery of MK-8153, a Potent and Selective ROMK Inhibitor and Novel Diuretic/Natriuretic” (J Med Chem, 2021):
Calls of active or inactive are those of the source. The rule behind the calls is not given here.

Key:
[1] = Toxicity in rat assessed as tolerance at 5 to 300 mg/kg treated for 7 days; assay type: organism-based; conditions: in vivo, 168 h, dose 5-300 mg/kg, time 7 day
[2] = target: Cytochrome P450 3A4 (Homo sapiens, UniProt P08684); test: Inhibition of CYP3A4 (unknown origin)
[3] = Cmax in Wistar Han rat at 2 mg/kg, po or 1 mg/kg, iv; assay type: ADME, organism-based; set-up: dose 2 mg/kg; conditions: in vivo
[4] = Effective half life in rhesus monkey at 2 mg/kg, po or 1 mg/kg, iv; assay type: ADME, organism-based, Macaca mulatta; conditions: in vivo, read-out: t1/2eff (converted)
[5] = Drug metabolism in rhesus monkey hepatocytes assessed as N-acetylglucosamine conjugate metabolite formation by LC/MS analysis; assay type: ADME, cell-based, Macaca mulatta, Hepatocyte
[6] = target: T1, ATP-sensitive inward rectifier potassium channel 1 (Homo sapiens, UniProt P48048); test: Inhibition of human ROMK expressed in CHO cells by whole cell voltage clamp electrophysiology assay; assay type: cell-based
T1 sequence (P48048 whole entry): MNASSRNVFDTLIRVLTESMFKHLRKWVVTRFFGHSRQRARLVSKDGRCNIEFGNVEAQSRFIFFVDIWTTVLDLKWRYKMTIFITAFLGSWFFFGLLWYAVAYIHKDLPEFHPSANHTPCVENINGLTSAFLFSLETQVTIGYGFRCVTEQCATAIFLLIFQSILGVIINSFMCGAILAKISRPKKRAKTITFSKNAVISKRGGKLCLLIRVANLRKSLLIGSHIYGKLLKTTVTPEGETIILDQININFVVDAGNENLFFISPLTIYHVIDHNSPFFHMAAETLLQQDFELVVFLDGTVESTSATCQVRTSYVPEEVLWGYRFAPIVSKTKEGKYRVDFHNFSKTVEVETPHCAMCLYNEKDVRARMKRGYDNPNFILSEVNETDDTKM

[7] = Tmax in rhesus monkey at 2 mg/kg, po or 1 mg/kg, iv; assay type: ADME, organism-based, Macaca mulatta; conditions: in vivo
[8] = Metabolic stability in rhesus monkey liver microsomes by LC/MS analysis; assay type: ADME, Macaca mulatta, Microsome
[9] = Oral bioavailability in Beagle dog at 2 mg/kg; assay type: ADME, organism-based, Canis lupus familiaris; conditions: in vivo
[10] = Cmax in Beagle dog at 2 mg/kg, po or 1 mg/kg, iv; assay type: ADME, organism-based, Canis lupus familiaris; set-up: dose 2 mg/kg; conditions: in vivo
[11] = Toxicity in rat assessed as change in body weight at 5 to 300 mg/kg treated for 7 days; assay type: organism-based; conditions: in vivo, 168 h, dose 5-300 mg/kg, time 7 day
[12] = Terminal half life in Beagle dog at 2 mg/kg, po or 1 mg/kg, iv; assay type: ADME, organism-based, Canis lupus familiaris; conditions: in vivo, read-out: beta t1/2 (converted)
[13] = Metabolic stability in Beagle dog hepatocytes by LC/MS analysis; assay type: ADME, cell-based, Canis lupus familiaris, Hepatocyte
[14] = Tmax in Beagle dog at 2 mg/kg, po or 1 mg/kg, iv; assay type: ADME, organism-based, Canis lupus familiaris; conditions: in vivo
[15] = tested on: Rattus norvegicus; test: Diuretic activity in orally dosed spontaneous hypertensive rat assessed as urine volume treated for 3 days measured after 0 to 24 hrs of dosing; assay type: functional, organism-based; conditions: time 3.0 day
[16] = target: Voltage-dependent L-type calcium channel subunit alpha-1C (Homo sapiens, UniProt Q13936); test: Inhibition of Cav1.2 (unknown origin)
[17] = AUC (0 to infinity) in Beagle dog at 2 mg/kg, po or 1 mg/kg, iv; assay type: ADME, organism-based, Canis lupus familiaris; set-up: dose 2 mg/kg; conditions: in vivo
[18] = Tmax in Wistar Han rat at 2 mg/kg, po or 1 mg/kg, iv; assay type: ADME, organism-based; conditions: in vivo
[19] = tested on: Rattus norvegicus; test: Diuretic activity in orally dosed spontaneous hypertensive rat assessed as increase in sodium excretion treated for 3 days measured after 0 to 24 hrs of dosing; assay type: functional, organism-based; conditions: time 3.0 day
[20] = Apparent permeability in pig LLC-PK1 cells
[21] = tested on: Rattus norvegicus; test: Antihypertensive activity in spontaneous hypertensive rat model assessed as decrease in systolic blood pressure at 1 mg/kg, po QD observed for 3 days; assay type: functional, organism-based; conditions: time 3.0 day
[22] = Volume of distribution at steady state in Wistar Han rat at 2 mg/kg, po or 1 mg/kg, iv; assay type: ADME, organism-based; conditions: in vivo, read-out: Vdss
[23] = Metabolic stability in Beagle dog liver microsomes by LC/MS analysis; assay type: ADME, Canis lupus familiaris, Microsome
[24] = target: Cytochrome P450 2C9 (Homo sapiens, UniProt P11712); test: Inhibition of CYP2C9 (unknown origin)
[25] = Metabolic stability in human hepatocytes by LC/MS analysis; assay type: ADME, cell-based, Hepatocyte
[26] = tested on: Rattus norvegicus; test: Diuretic activity in orally dosed spontaneous hypertensive rat assessed as increase in sodium excretion treated for 3 days measured after 0 to 4 hrs of dosing; assay type: functional, organism-based; conditions: time 3.0 day
[27] = tested on: Rattus norvegicus; test: Diuretic activity in orally dosed spontaneous hypertensive rat assessed as urine volume treated for 3 days measured after 0 to 4 hrs of dosing; assay type: functional, organism-based; conditions: time 3.0 day
[28] = Metabolic stability in human liver microsomes by LC/MS analysis; assay type: ADME, Microsome
[29] = target: Cytochrome P450 2D6 (Homo sapiens, UniProt P10635); test: Inhibition of CYP2D6 (unknown origin)
Chain of Cytochrome P450 2D6 (P10635 whole entry): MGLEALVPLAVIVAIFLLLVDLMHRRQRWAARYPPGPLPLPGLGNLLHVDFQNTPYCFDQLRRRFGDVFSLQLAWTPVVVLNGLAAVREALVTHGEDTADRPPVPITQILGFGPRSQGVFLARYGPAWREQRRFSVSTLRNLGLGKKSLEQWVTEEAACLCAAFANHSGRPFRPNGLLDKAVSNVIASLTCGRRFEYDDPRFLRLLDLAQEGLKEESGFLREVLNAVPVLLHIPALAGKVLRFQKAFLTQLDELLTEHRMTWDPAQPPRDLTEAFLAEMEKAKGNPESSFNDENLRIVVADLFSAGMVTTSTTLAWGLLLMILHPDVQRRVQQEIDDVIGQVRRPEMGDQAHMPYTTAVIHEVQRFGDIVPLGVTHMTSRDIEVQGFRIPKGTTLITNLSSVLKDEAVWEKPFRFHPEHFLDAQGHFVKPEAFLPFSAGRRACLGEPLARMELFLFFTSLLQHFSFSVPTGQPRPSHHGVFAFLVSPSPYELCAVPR

Chain of Voltage-dependent L-type calcium channel subunit alpha-1C (Q13936 whole entry): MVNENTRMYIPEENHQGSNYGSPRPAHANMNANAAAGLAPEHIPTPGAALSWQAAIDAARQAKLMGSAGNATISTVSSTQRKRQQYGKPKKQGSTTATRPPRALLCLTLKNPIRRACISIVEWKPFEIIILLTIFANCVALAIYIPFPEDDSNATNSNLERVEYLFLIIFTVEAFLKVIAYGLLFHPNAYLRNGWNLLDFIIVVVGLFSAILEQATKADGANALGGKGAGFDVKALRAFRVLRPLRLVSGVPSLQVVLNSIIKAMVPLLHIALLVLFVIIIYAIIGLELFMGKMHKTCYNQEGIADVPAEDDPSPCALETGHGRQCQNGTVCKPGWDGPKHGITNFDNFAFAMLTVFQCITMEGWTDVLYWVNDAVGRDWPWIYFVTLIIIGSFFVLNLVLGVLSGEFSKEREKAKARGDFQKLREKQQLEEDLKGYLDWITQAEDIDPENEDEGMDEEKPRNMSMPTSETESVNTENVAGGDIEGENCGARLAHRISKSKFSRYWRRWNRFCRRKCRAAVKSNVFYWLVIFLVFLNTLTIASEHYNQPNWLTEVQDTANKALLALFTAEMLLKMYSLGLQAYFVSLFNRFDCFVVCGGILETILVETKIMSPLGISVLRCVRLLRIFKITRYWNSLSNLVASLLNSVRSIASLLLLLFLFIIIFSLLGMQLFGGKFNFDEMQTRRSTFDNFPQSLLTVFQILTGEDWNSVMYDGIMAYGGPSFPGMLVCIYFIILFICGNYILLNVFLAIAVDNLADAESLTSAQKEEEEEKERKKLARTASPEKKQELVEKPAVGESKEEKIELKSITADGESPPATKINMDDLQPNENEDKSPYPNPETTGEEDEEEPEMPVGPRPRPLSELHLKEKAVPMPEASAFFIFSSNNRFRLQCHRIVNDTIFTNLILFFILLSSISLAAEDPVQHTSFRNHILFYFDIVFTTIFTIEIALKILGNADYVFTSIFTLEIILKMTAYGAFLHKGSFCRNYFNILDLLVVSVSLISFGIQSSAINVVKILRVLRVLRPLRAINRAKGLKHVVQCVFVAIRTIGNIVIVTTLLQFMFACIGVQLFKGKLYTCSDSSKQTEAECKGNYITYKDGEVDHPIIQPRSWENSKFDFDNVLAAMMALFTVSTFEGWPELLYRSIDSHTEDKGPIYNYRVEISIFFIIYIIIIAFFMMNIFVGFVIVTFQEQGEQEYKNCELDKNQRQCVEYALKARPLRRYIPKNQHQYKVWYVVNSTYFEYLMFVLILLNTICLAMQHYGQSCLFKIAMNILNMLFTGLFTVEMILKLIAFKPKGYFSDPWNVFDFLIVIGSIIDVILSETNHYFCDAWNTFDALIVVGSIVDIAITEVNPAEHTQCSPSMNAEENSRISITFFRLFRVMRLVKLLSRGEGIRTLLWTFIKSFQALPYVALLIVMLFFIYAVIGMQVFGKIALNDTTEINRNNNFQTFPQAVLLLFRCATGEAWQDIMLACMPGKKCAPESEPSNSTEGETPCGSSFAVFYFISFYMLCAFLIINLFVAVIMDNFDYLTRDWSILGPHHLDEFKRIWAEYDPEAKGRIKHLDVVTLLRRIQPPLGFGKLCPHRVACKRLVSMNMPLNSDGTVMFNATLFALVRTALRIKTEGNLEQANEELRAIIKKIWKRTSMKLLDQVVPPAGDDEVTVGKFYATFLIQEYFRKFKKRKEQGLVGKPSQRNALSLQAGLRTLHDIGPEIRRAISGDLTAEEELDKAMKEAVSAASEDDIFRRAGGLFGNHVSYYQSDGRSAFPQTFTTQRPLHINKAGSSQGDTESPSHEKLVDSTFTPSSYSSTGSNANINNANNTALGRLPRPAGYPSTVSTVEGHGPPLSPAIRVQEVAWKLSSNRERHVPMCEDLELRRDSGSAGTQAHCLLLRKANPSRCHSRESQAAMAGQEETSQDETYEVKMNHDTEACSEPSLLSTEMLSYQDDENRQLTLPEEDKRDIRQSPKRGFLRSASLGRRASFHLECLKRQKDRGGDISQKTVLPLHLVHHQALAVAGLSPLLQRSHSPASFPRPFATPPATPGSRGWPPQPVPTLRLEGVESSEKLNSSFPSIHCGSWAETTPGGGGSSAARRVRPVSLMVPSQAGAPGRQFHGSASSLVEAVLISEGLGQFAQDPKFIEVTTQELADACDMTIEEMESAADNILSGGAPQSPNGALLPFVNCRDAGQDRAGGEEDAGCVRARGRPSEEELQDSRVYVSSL
Chain of Cytochrome P450 3A4 (P08684 whole entry): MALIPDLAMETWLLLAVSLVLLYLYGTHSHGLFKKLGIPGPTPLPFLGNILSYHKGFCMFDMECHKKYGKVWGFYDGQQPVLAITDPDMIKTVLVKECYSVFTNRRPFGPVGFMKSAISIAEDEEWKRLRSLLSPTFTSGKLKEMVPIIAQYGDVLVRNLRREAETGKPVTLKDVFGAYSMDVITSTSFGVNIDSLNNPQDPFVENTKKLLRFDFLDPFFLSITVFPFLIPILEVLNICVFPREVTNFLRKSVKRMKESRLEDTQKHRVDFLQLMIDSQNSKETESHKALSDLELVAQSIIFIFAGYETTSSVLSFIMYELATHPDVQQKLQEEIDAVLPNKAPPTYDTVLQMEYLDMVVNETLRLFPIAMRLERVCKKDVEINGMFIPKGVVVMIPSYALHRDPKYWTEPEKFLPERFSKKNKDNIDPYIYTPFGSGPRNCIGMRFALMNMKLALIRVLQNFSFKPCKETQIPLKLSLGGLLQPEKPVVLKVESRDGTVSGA
Chain of Cytochrome P450 2C9 (P11712 whole entry): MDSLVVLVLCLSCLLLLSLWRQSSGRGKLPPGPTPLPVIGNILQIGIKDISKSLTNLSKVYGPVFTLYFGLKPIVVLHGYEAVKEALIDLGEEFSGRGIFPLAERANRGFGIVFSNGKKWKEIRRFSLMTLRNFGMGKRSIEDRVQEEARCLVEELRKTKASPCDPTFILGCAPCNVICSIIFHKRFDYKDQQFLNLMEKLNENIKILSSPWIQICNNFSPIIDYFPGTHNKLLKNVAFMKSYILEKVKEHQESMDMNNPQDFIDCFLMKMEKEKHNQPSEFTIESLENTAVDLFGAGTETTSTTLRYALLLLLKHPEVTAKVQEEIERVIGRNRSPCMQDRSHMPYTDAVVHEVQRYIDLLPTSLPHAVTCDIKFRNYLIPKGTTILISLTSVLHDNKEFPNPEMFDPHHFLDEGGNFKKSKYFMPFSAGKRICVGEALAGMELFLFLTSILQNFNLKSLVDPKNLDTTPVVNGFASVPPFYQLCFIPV

IC50 [2]: > 50 µM
Cmax [3]: 0.31 µM
half-life [4]: 108 min
Drug metabolism [5]: Metabolite_Detected
IC50 [6]: 0.005 µM
Tmax [7]: 30 min
Stability [8]: Stable
bioavailability [9]: 100%
Cmax [10]: 2.4 µM
half-life [12]: 546 min
Stability [13]: Stable
Tmax [14]: 48 min
AUC(0-inf) [17]: 15.1 µM·h
Tmax [18]: 30 min
Papp [20]: 210 nm/s
Vd [22]: 14.7 L/kg
Stability [23]: Stable
IC50 [24]: > 50 µM
Stability [25]: Stable
Stability [28]: Stable
IC50 [29]: > 50 µM
Compound: CC1=C(N2CCC3(CCN(C[C@H](O)c4ccc5c(c4C)COC5=O)CC3)C2=O)COC1=O
Activity [1]: Non-Toxic
Activity [11]: Non-Toxic
Activity [15]: Dose-Dependent Effect
IC50 [16]: > 30 µM
Activity [19]: Dose-Dependent Effect
Activity [21]: Active
Activity [26]: Dose-Dependent Effect
Activity [27]: Dose-Dependent Effect
